Biological target: T1, N-formyl peptide receptor 2 (Homo sapiens, UniProt P25090)
T1 sequence (P25090 whole entry): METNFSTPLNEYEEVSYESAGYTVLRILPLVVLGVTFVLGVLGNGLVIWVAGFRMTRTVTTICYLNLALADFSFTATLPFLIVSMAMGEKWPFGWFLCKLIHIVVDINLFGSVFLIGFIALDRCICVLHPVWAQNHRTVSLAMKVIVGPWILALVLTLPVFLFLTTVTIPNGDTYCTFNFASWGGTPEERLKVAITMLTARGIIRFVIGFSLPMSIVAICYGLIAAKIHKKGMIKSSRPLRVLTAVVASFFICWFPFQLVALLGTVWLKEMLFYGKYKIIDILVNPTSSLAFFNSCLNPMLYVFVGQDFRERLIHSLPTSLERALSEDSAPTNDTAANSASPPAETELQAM
Assay: human FPR2 ligand displacement potency – cell-based, flow cytometry, Ki from IC50, dose response (AID 766)

Row | SMILES | IC50 [µM] | IC50 (inactive by the depositor's call) [µM]
1 | COc1ccc(-c2cc(C(F)(F)F)nc(N3CCN(c4ccccc4)CC3)n2)cc1OC [4-(3,4-dimethoxyphenyl)-2-(4-phenyl-1-piperazinyl)-6-(trifluoromethyl)pyrimidine] | > 50 | –
2 | COc1ccc(CC(=O)Nc2cc(-c3cn4cccnc4n3)ccc2OC)cc1 [N-(5-imidazo[1,2-a]pyrimidin-2-yl-2-methoxy-phenyl)-2-(4-methoxyphenyl)acetamide] | 9.9 | –
3 | CCOC(=O)N1CCN(c2nc(-c3ccc(OC)c(OC)c3)cc(C(F)(F)F)n2)CC1 [4-[4-(3,4-dimethoxyphenyl)-6-(trifluoromethyl)-2-pyrimidinyl]-1-piperazinecarboxylic acid ethyl ester] | > 50.5 | –
4 | COc1ccc(-c2cc(C(F)(F)F)nc(N3CCN(C(c4ccccc4)c4ccccc4)CC3)n2)cc1OC [2-(4-benzhydrylpiperazin-1-yl)-4-(3,4-dimethoxyphenyl)-6-(trifluoromethyl)pyrimidine] | > 41.6 | –
5 | COc1ccc(-c2cn3cccnc3n2)cc1NC(=O)C1CCCC1 [MLS000045945] | > 66.1 | –
6 | COc1ccc(-c2cc(C(F)(F)F)nc(N3CCN(Cc4ccccc4)CC3)n2)cc1OC [2-(4-benzylpiperazin-1-yl)-4-(3,4-dimethoxyphenyl)-6-(trifluoromethyl)pyrimidine] | – | 16.5
7 | COc1ccc(-c2cn3cccnc3n2)cc1NC(=O)C(C)C [N-(5-imidazo[1,2-a]pyrimidin-2-yl-2-methoxy-phenyl)-2-methyl-propanamide] | 3.6 | –
8 | COc1ccc(-c2cn3cccnc3n2)cc1NC(=O)C1CC1 [MLS000045944] | 6.7 | –
9 | CCC(=O)Nc1cc(-c2cn3cccnc3n2)ccc1OC [N-(5-imidazo[1,2-a]pyrimidin-2-yl-2-methoxy-phenyl)propanamide] | 10.7 | –
10 | O=C(N1CCN(c2nc(-c3ccccc3)c3ccccc3n2)CC1)C(F)(F)F [2,2,2-trifluoro-1-[4-(4-phenyl-2-quinazolinyl)-1-piperazinyl]ethanone] | > 57.5 | –

Reference: BindingDB's records for doi:10.7270/Q2NP22V6 (NMMLSC, 2007)
